Assay results reported in patent US4540700A, “Treatment of diabetic complications with certain spiro-imidazolidine-diones” (Alcon Laboratories, Inc., priority 1984, dated 1985).

Test system: cataract formation in galactocemic rats
Assay: in vivo dose response by intubation (per oral) in galactocemic rats, cataract (vacuole) formation
Parameters: species or system Charles River CD (Sprague-Dawley derived) male rats
Experimental: B. In vivo dose response studies were conducted to test the in vivo activity of the following compounds by intubation (per oral) in galactocemic rats on a 30% galactose diet previously described:
Stock suspensions of the test compounds and all dilutions of the compound were formulated with 0.03% by weight Tween 80.
Healthy, Charles River CD (outbred albino, Sprague-Dawley derived) male rats, aged 20-30 days, without observable ocular defects and ranging in weight from 35-45 grams, were acclimated to experimental conditions (in quarantine) for two days prior to beginning the study.
Rats were individually assigned to one of twenty-three groups according to a random number schedule. Two rats, belonging to the same drug-diet treatment group, were housed per cage. Treatment and control groups consisted of six (6) rats each with no replacement in the event of death, and were designated as follows:
Lenses of all eyes were examined with a hand-held ophthalmoscope in the early stages of cataract development and a penlight for the stages, snowflake-like, snowflake, and nuclear cataract. Lens grading occurred every day for the first ten study days, and then every other day until study Day 14.
The relative potency determination was made at 7 drug levels over half log dose intervals. The response (percent cataracts formed and/or the time to cataract formation) was plotted against mg/kg and/or moles/kg.
The study was directed to the suppression and/or elimination of the initial stages of cataract development characterized by vacuoles or snowflake-likeopacities only. It was assumed therefore that suppression and/or elimination of vacuoles or lens opacification by the test drugs affects the transport, absorption and/or metabolism of galactose in such a manner as to prevent subsequent osmotic disturbances normally leading to tissue degeneration and advanced cataract. Advanced cataract defined as stages 2-4 of the Sipple classification was assumed to be of secondary importance to the etiology of cataract inhibition.
In the event where cataract stage other than vacuole formed, such as snowflake-like opacities, this cataract was counted similarly as vacuole in percent cataract formation.
This study yielded this expected effect in the control groups.
All animals were fed Purina Laboratory Chow and water, ad libitum, for the two day acclimation period. All drugs were dosed orally by intubation using an animal feeding needle (Popper and Sons), 18 or 20 gauge, attached to a 1 or 3 ml syringe. Once the dosing time schedule was established, the schedule was followed throughout the study to compensate for any diurnal variation.
The animals were kept on a twelve hour day/night cycle. The temperature and humidity were determined each day at the scheduled dosing time of 1:00 p.m.
The animals were weighed every other day and adjustments to dosage amounts to compensate for weight gain were made each day prior to the dose time. All food was routinely withheld from all animal groups for four hours (9:00 a.m.) prior to the drug dose and restored two hours (3:00 p.m.) post-dose. Otherwise sufficient amounts of chow or diet mixture were maintained in the food hopper to allow the animals to eat ad libitum. There were two days of drug dosage with the animals remaining on Purina Laboratory Chow (Days 1 and 2). The 30% galactose diet mixture was introduced to the animals two hours post-dose on Day 3 which constituted Day 1 of the study.
All eyes were examined with a hand-held ophthalmoscope and/or penlight at the times designated in the Experimental Design section.
It has been found in previous studies that dilation of the eye with a mydriactic (i.e. Mydriacyl) is not necessary for accurate grading, due to the semi-transparent nature of the rat iris. In the early stages (i.e., grades -, ±, and +) the lens was observed by reflecting the ophthalmoscope beam off the retina back through the lens and iris. Using this technique, vacuoles appear as dark, almost opaque patches. […]

[1] = relative to Sarges Racemic, observation day 12, 95% confidence limits

Question: Which results are given for `O=C1NC(=O)C2(N1)c1ccccc1-c1ccc(F)cc12` (racemic) [Compound L, dl-Spiro(2-fluorofluoren-9,4'-imidazolidine)-2',5'-dione]?
Answer: Percent of Rat Eyes With at Least Vacuoles Formed (4.0 mg/kg p.o., Day 8, listed as 2-fluoro): 0%; Percent of Rat Eyes With at Least Vacuoles Formed (4.0 mg/kg p.o., Day 9): 0.0%; Percent of Rat Eyes With at Least Vacuoles Formed (4.0 mg/kg p.o., Day 9, listed as 2-fluoro): 0%; Percent of Rat Eyes With at Least Vacuoles Formed (4.0 mg/kg p.o., Day 10): 0.0%; Percent of Rat Eyes With at Least Vacuoles Formed (4.0 mg/kg p.o., Day 10, listed as 2-fluoro): 0%; Percent of Rat Eyes With at Least Vacuoles Formed (4.0 mg/kg p.o., Day 12): 0.0%; Percent of Rat Eyes With at Least Vacuoles Formed (4.0 mg/kg p.o., Day 12, listed as 2-fluoro): 0%; Percent of Rat Eyes With at Least Vacuoles Formed (4.0 mg/kg p.o., Day 14): 0.0%; Percent of Rat Eyes With at Least Vacuoles Formed (4.0 mg/kg p.o., Day 14, listed as 2-fluoro): 0%; Percent of Rat Eyes With at Least Vacuoles Formed (12.6 mg/kg p.o., Day 0): 0%; Percent of Rat Eyes With at Least Vacuoles Formed (12.6 mg/kg p.o., Day 1): 0%; Percent of Rat Eyes With at Least Vacuoles Formed (12.6 mg/kg p.o., Day 2): 0%; Percent of Rat Eyes With at Least Vacuoles Formed (12.6 mg/kg p.o., Day 3): 0%; Percent of Rat Eyes With at Least Vacuoles Formed (12.6 mg/kg p.o., Day 4): 0%; Percent of Rat Eyes With at Least Vacuoles Formed (12.6 mg/kg p.o., Day 5): 0%; Percent of Rat Eyes With at Least Vacuoles Formed (12.6 mg/kg p.o., Day 6): 0.0%; Percent of Rat Eyes With at Least Vacuoles Formed (12.6 mg/kg p.o., Day 6, listed as 2-fluoro): 0%; Percent of Rat Eyes With at Least Vacuoles Formed (12.6 mg/kg p.o., Day 7): 0.0%; Percent of Rat Eyes With at Least Vacuoles Formed (12.6 mg/kg p.o., Day 7, listed as 2-fluoro): 0%; Percent of Rat Eyes With at Least Vacuoles Formed (12.6 mg/kg p.o., Day 8): 0.0%; Percent of Rat Eyes With at Least Vacuoles Formed (12.6 mg/kg p.o., Day 8, listed as 2-fluoro): 0%; Percent of Rat Eyes With at Least Vacuoles Formed (12.6 mg/kg p.o., Day 9): 0.0%; Percent of Rat Eyes With at Least Vacuoles Formed (12.6 mg/kg p.o., Day 9, listed as 2-fluoro): 0%; Percent of Rat Eyes With at Least Vacuoles Formed (12.6 mg/kg p.o., Day 10): 0.0%; Percent of Rat Eyes With at Least Vacuoles Formed (12.6 mg/kg p.o., Day 10, listed as 2-fluoro): 0%; Percent of Rat Eyes With at Least Vacuoles Formed (12.6 mg/kg p.o., Day 12): 0.0%; Percent of Rat Eyes With at Least Vacuoles Formed (12.6 mg/kg p.o., Day 12, listed as 2-fluoro): 0%; Percent of Rat Eyes With at Least Vacuoles Formed (12.6 mg/kg p.o., Day 14): 0.0%; Percent of Rat Eyes With at Least Vacuoles Formed (12.6 mg/kg p.o., Day 14, listed as 2-fluoro): 0%; Percent of Rat Eyes With at Least Vacuoles Formed (40 mg/kg p.o., Day 0): 0%; Percent of Rat Eyes With at Least Vacuoles Formed (40 mg/kg p.o., Day 1): 0%; Percent of Rat Eyes With at Least Vacuoles Formed (40 mg/kg p.o., Day 2): 0%; Percent of Rat Eyes With at Least Vacuoles Formed (40 mg/kg p.o., Day 3): 0%; Percent of Rat Eyes With at Least Vacuoles Formed (40 mg/kg p.o., Day 4): 0%; Percent of Rat Eyes With at Least Vacuoles Formed (40 mg/kg p.o., Day 5): 0%; Percent of Rat Eyes With at Least Vacuoles Formed (40 mg/kg p.o., Day 6): 0.0%; Percent of Rat Eyes With at Least Vacuoles Formed (40 mg/kg p.o., Day 6, listed as 2-fluoro): 0%; Percent of Rat Eyes With at Least Vacuoles Formed (40 mg/kg p.o., Day 7): 0.0%; Percent of Rat Eyes With at Least Vacuoles Formed (40 mg/kg p.o., Day 7, listed as 2-fluoro): 0%; Percent of Rat Eyes With at Least Vacuoles Formed (40 mg/kg p.o., Day 8): 0.0%; Percent of Rat Eyes With at Least Vacuoles Formed (40 mg/kg p.o., Day 8, listed as 2-fluoro): 0%; Percent of Rat Eyes With at Least Vacuoles Formed (40 mg/kg p.o., Day 9): 0.0%; Percent of Rat Eyes With at Least Vacuoles Formed (40 mg/kg p.o., Day 9, listed as 2-fluoro): 0%; Percent of Rat Eyes With at Least Vacuoles Formed (40 mg/kg p.o., Day 10): 0.0%; Percent of Rat Eyes With at Least Vacuoles Formed (40 mg/kg p.o., Day 10, listed as 2-fluoro): 0%; Percent of Rat Eyes With at Least Vacuoles Formed (40 mg/kg p.o., Day 12): 0.0%; Percent of Rat Eyes With at Least Vacuoles Formed (40 mg/kg p.o., Day 12, listed as 2-fluoro): 0%; Percent of Rat Eyes With at Least Vacuoles Formed (40 mg/kg p.o., Day 14): 0.0%; Percent of Rat Eyes With at Least Vacuoles Formed (40 mg/kg p.o., Day 14, listed as 2-fluoro): 0%; activity in vivo relative to the Sarges compound (rat studies): unexpectedly and significantly more active; Relative Potency (antilog) [1]: 4.58; log relative potency for eyes with vacuoles or more advanced cataracts [1]: 0.6605
